Here are results for three compounds from ChEMBL document CHEMBL5346933, “Design and synthesis of novel arylurea derivatives of aryloxy(1-phenylpropyl) alicyclic diamines with antimicrobial activity against multidrug-resistant Gram-positive bacteria” (Eur J Med Chem, 2023).

Converted amounts (≈) assume the structure as drawn. The source made the active and inactive calls. The calls are words filed in the database; no cut-off is given here.

For series [1], the system named is Cell membrane. The series can be described thus: Induction of cell membrane depolarization in methicillin-resistant Staphylococcus aureus 19449 assessed as bacterial cells with depolarized membrane potential at 500 uM incubated for 25 to 30 mins by DiOC2(3) probe based flow cytometry (reference value: 0.7%). It counts as subcellular. As to conditions: time 25-30 min.

The subject of series [2] is Cell membrane. The series is described as follows: Induction of cell membrane depolarization in Staphylococcus aureus Newman assessed as bacterial cells with depolarized membrane potential at 500 uM incubated for 25 to 30 mins by DiOC2(3) probe based flow cytometry (reference value: 1.6%). It counts as subcellular. As to conditions: time 25-30 min.
For series [3], the system named is Cell membrane. The series is described as follows: Induction of cell membrane depolarization in vancomycin-resistant Enterococcus faecium clinical strain assessed as ratio of red to green fluorescence intensity at 500 uM incubated for 25 to 30 mins by DiOC2(3) probe based flow cytometry. It counts as subcellular. As to conditions: time 25-30 min.
For series [4], the system named is Cell membrane. The series can be described thus: Induction of cell membrane depolarization in Staphylococcus aureus Newman assessed as ratio of red to green fluorescence intensity at 500 uM incubated for 25 to 30 mins by DiOC2(3) probe based flow cytometry. As to conditions: time 25-30 min. It counts as subcellular.
In series [5] the test system is Cell membrane. The series can be described thus: Induction of cell membrane depolarization in methicillin-resistant Staphylococcus aureus 19449 assessed as ratio of red to green fluorescence intensity at 500 uM incubated for 25 to 30 mins by DiOC2(3) probe based flow cytometry. It counts as subcellular. As to conditions: time 25-30 min.
Series [6] has as its system Cell membrane. The series can be described thus: Induction of cell membrane depolarization in vancomycin-resistant Enterococcus faecium clinical strain assessed as bacterial cells with polarized membrane potential at 500 uM incubated for 25 to 30 mins by DiOC2(3) probe based flow cytometry (reference value: 96.8%). In kind it is subcellular. As to conditions: time 25-30 min.

For series [7], the system named is Cell membrane. The series is described as follows: Induction of cell membrane depolarization in methicillin-resistant Staphylococcus aureus 19449 assessed as bacterial cells with polarized membrane potential at 500 uM incubated for 25 to 30 mins by DiOC2(3) probe based flow cytometry (reference value: 98.8%). In kind it is subcellular. As to conditions: time 25-30 min.

The subject of series [8] is Cell membrane. The series is described as follows: Induction of cell membrane depolarization in Staphylococcus aureus Newman assessed as bacterial cells with polarized membrane potential at 500 uM incubated for 25 to 30 mins by DiOC2(3) probe based flow cytometry (reference value: 94.3%). It counts as subcellular. As to conditions: time 25-30 min.
Series [9] concerns Cell membrane. The series can be described thus: Induction of cell membrane depolarization in vancomycin-resistant Enterococcus faecium clinical strain assessed as bacterial cells with depolarized membrane potential at 500 uM incubated for 25 to 30 mins by DiOC2(3) probe based flow cytometry (reference value: 0.8%). In kind it is subcellular. As to conditions: time 25-30 min.

Series [10] concerns Staphylococcus aureus. The series can be described thus: Antibacterial activity against methicillin-resistant Staphylococcus aureus clinical strain 19449 assessed as inhibition of bacterial growth incubated for 18 hrs by broth microdilution method. In kind it is functional.
Series [11] is described as follows: Cytotoxicity against human MRC5 cells assessed as reduction in cell viability incubated for 24 hrs by MTT assay. It counts as toxicity, cell-based.
The test system of another series is Enterococcus faecalis. The series is described as follows: Antibacterial activity against Enterococcus faecalis ATCC 29212 assessed as inhibition of bacterial growth incubated for 18 hrs by broth microdilution method. In kind it is functional.
The subject of series [12] is Staphylococcus aureus. The series can be described thus: Antibacterial activity against methicillin-susceptible Staphylococcus aureus ATCC 25923 assessed as inhibition of bacterial growth incubated for 18 hrs by broth microdilution method. In kind it is functional.
Series [13] relates to Staphylococcus epidermidis. The series is described as follows: Antibacterial activity against methicillin-susceptible Staphylococcus epidermidis ATCC 12228 assessed as inhibition of bacterial growth incubated for 18 hrs by broth microdilution method. It counts as functional.
Series [14] is described as follows: Cytotoxicity against human BJ cells assessed as reduction in cell viability incubated for 24 hrs by MTT assay. In kind it is toxicity, cell-based.
For series [15], the system named is Staphylococcus epidermidis. The series can be described thus: Antibacterial activity against linezolid-resistant Staphylococcus epidermidis NIL 4399/19 assessed as inhibition of bacterial growth incubated for 18 hrs by broth microdilution method. It counts as functional.
Series [16] relates to Streptococcus pneumoniae. The series can be described thus: Antibacterial activity against Streptococcus pneumoniae ATCC 49619 assessed as inhibition of bacterial growth incubated for 18 hrs by broth microdilution method. In kind it is functional.
Another series deals with Escherichia coli. The series can be described thus: Antibacterial activity against Escherichia coli ATCC 25922 assessed as inhibition of bacterial growth incubated for 18 hrs by broth microdilution method. In kind it is functional.
Another series deals with Klebsiella pneumoniae. The series can be described thus: Antibacterial activity against Klebsiella pneumoniae ATCC 700603 assessed as inhibition of bacterial growth incubated for 18 hrs by broth microdilution method. It counts as functional.
Series [17] relates to Staphylococcus aureus. The series is described as follows: Antibacterial activity against biofilm producer Staphylococcus aureus RN450 assessed as inhibition of bacterial growth incubated for 18 hrs by broth microdilution method. In kind it is functional.
Series [18] relates to Staphylococcus epidermidis. The series is described as follows: Antibacterial activity against biofilm producer Staphylococcus epidermidis ATCC 35984 assessed as inhibition of bacterial growth incubated for 18 hrs by broth microdilution method. In kind it is functional.
A further series has as its system Enterococcus faecium. The series is described as follows: Antibacterial activity against vancomycin-resistant Enterococcus faecium assessed as inhibition of bacterial growth incubated for 18 hrs by broth microdilution method. In kind it is functional.
Series [19] in a line: Cytotoxicity against human BJ cells assessed as cell viability at 25 ug/ml incubated for 24 hrs by MTT assay. As to conditions: at 25 µg/mL, read-out: Activity. In kind it is toxicity, cell-based.
Series [20] deals with Staphylococcus aureus. The series can be described thus: Antibacterial activity against vancomycin-intermediate Staphylococcus aureus ATCC 700699 assessed as inhibition of bacterial growth incubated for 18 hrs by broth microdilution method. In kind it is functional.
The subject of the next series is Pseudomonas aeruginosa. The series is described as follows: Antibacterial activity against Pseudomonas aeruginosa ATCC 27853 assessed as inhibition of bacterial growth incubated for 18 hrs by broth microdilution method. It counts as functional.
Series [21] is described as follows: Induction of hemolysis in horse RBC at 200 uM incubated for 1 hr. As to conditions: horse red blood cells (erythrocytes), read-out: Activity. In kind it is toxicity, cell-based, Equus caballus, Erythrocyte.
For series [22], the system named is Streptococcus pneumoniae. The series can be described thus: Antibacterial activity against macrolides-lincosamides and streptogramins B-resistant Streptococcus pneumoniae O/19/4199 assessed as inhibition of bacterial growth incubated for 18 hrs by broth microdilution method. In kind it is functional.
Series [23] relates to Staphylococcus aureus. The series is described as follows: Antibacterial activity against Staphylococcus aureus Newman assessed as inhibition of bacterial growth incubated for 18 hrs by broth microdilution method. It counts as functional.
The subject of series [24] is Streptococcus pneumoniae. The series is described as follows: Antibacterial activity against Oxacillin-resistant Streptococcus pneumoniae O/19/4541 assessed as inhibition of bacterial growth incubated for 18 hrs by broth microdilution method. In kind it is functional.

Regarding `N#CC(C#N)=NNc1cccc(Cl)c1`, the Activity worked out at 99% with Cell membrane [1]; 94.5% in the series on Cell membrane [2]; 6.5% in the series on Cell membrane [6]; 0.3% in the series on Cell membrane [7]; 0% in the series with Cell membrane [8]; 88.1% in the series on Cell membrane [9]. For the same compound, the Ratio in the series with Cell membrane [3] was 0.29; with Cell membrane [4] it was 0.33; in the series with Cell membrane [5] it was 0.34.

In the case of `O=C(Nc1cccc(Cl)c1)NC1CCN(CCC(Oc2cccc(Cl)c2)c2ccccc2)CC1` (racemic), the MIC came to 3.12 µg/mL (≈ 6.27 µM) in the series with Staphylococcus aureus [10]; 3.12 µg/mL (≈ 6.27 µM) in the series with Enterococcus faecalis; 3.12 µg/mL (≈ 6.27 µM) in the series with Staphylococcus aureus [12]; 3.12 µg/mL (≈ 6.27 µM) in [13]; 3.12 µg/mL (≈ 6.27 µM) in series [15]; 6.25 µg/mL (≈ 12.5 µM) in the series with Streptococcus pneumoniae [16]. In addition, the MIC in the series on Staphylococcus aureus [17] was 1.56 µg/mL (≈ 3.13 µM); in series [18], 1.56 µg/mL (≈ 3.13 µM); with Enterococcus faecium, 1.56 µg/mL (≈ 3.13 µM); in the series on Staphylococcus aureus [20], 3.12 µg/mL (≈ 6.27 µM). The IC50 at 24 h in series [11] is 6.25 µg/mL (≈ 12.5 µM); in series [14], over 25 µg/mL. The outcome with Escherichia coli, in the series with Klebsiella pneumoniae and with Pseudomonas aeruginosa was inactive. The viability at 24 h, 25 ug/ml in series [19] was determined as 91%. The hemolysis at 1 h, 200 µM in [21] is under 1%.

Take `CC(=O)NC[C@H]1CN(c2ccc(N3CCOCC3)c(F)c2)C(=O)O1` [LINEZOLID]: the MIC came to 3.12 µg/mL (≈ 9.26 µM) in the series on Staphylococcus aureus [10]; 1.56 µg/mL (≈ 4.62 µM) in the series on Enterococcus faecalis; 3.12 µg/mL (≈ 9.26 µM) with Staphylococcus aureus [12]; 1.56 µg/mL (≈ 4.62 µM) in series [13]; 250 µg/mL (≈ 741 µM) in series [15]; 0.78 µg/mL (≈ 2.31 µM) in the series on Streptococcus pneumoniae [16]. Besides, the MIC stood at 1.56 µg/mL (≈ 4.62 µM) in the series on Streptococcus pneumoniae [22]; 0.78 µg/mL (≈ 2.31 µM) with Staphylococcus aureus [17]; 1.56 µg/mL (≈ 4.62 µM) in [18]; 0.78 µg/mL (≈ 2.31 µM) with Enterococcus faecium; 1.56 µg/mL (≈ 4.62 µM) in the series with Staphylococcus aureus [20]; 1.56 µg/mL (≈ 4.62 µM) with Staphylococcus aureus [23]. Also, the MIC with Streptococcus pneumoniae [24] is 1.56 µg/mL (≈ 4.62 µM).
